According to PubChem BioAssay (NCI):
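Cultured in 96-well plates, cells were exposed to test compound for 48 hours across five concentrations. TGI marks complete inhibition of growth.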

Key:
Experiment in all cases: NCI tumour cell line growth inhibition, 48 h
RXF 393 renal = test system: RXF 393 renal
HCT-116 colon = test system: HCT-116 colon
CAKI-1 renal = test system: CAKI-1 renal
SNB-19 CNS = test system: SNB-19 CNS
UACC-257 melanoma = test system: UACC-257 melanoma
SK-MEL-28 melanoma = test system: SK-MEL-28 melanoma
CCRF-CEM leukemia = test system: CCRF-CEM leukemia
NCI-H522 lung = test system: NCI-H522 lung
MOLT-4 leukemia = test system: MOLT-4 leukemia
OVCAR-4 ovarian = test system: OVCAR-4 ovarian
DLD-1 colon = test system: DLD-1 colon
COLO 205 colon = test system: COLO 205 colon
HOP-92 NSCLC = test system: HOP-92 NSCLC
A498 renal = test system: A498 renal
LOX IMVI melanoma = test system: LOX IMVI melanoma
DMS 273 small cell lung = test system: DMS 273 small cell lung
RPMI-8226 leukemia = test system: RPMI-8226 leukemia
P388 leukemia = test system: P388 leukemia
XF 498 CNS = test system: XF 498 CNS
SF-268 CNS = test system: SF-268 CNS
SK-OV-3 ovarian = test system: SK-OV-3 ovarian
OVCAR-5 ovarian = test system: OVCAR-5 ovarian
P388/ADR leukemia = test system: P388/ADR leukemia
KM20L2 colon = test system: KM20L2 colon
U251 CNS = test system: U251 CNS
SNB-75 CNS = test system: SNB-75 CNS
DMS 114 small cell lung = test system: DMS 114 small cell lung
SK-MEL-2 melanoma = test system: SK-MEL-2 melanoma
KM12 colon = test system: KM12 colon
NCI/ADR-RES ovarian = test system: NCI/ADR-RES ovarian
SW-620 colon = test system: SW-620 colon
K-562 leukemia = test system: K-562 leukemia
OVCAR-8 ovarian = test system: OVCAR-8 ovarian
NCI-H23 lung = test system: NCI-H23 lung
SNB-78 CNS = test system: SNB-78 CNS
NCI-H460 lung = test system: NCI-H460 lung
HL-60(TB) leukemia = test system: HL-60(TB) leukemia
M19-MEL melanoma = test system: M19-MEL melanoma
EKVX NSCLC = test system: EKVX NSCLC
SK-MEL-5 melanoma = test system: SK-MEL-5 melanoma
SN12K1 renal = test system: SN12K1 renal
SN12C renal = test system: SN12C renal
UO-31 renal = test system: UO-31 renal
SF-295 CNS = test system: SF-295 CNS
HCT-15 colon = test system: HCT-15 colon
NCI-H226 lung = test system: NCI-H226 lung
A549 NSCLC = test system: A549 NSCLC
SF-539 CNS = test system: SF-539 CNS
HT29 colon = test system: HT29 colon
MALME-3M melanoma = test system: MALME-3M melanoma
HOP-18 NSCLC = test system: HOP-18 NSCLC
HCC-2998 colon = test system: HCC-2998 colon
UACC-62 melanoma = test system: UACC-62 melanoma
OVCAR-3 ovarian = test system: OVCAR-3 ovarian
MCF7 breast = test system: MCF7 breast
HOP-62 NSCLC = test system: HOP-62 NSCLC
IGROV1 ovarian = test system: IGROV1 ovarian

Compound `O=C1NC(c2cccc3ccccc23)Nc2ccc(O)cc21` (centres undefined) has a TGI (RXF 393 renal) of 91.9 µM, a TGI (HCT-116 colon) of 122 µM and a TGI (CAKI-1 renal) greater than 144 µM. It also gave a TGI (SNB-19 CNS) of 150 µM, a TGI (UACC-257 melanoma) greater than 84.4 µM and a TGI (SK-MEL-28 melanoma) greater than 150 µM. For the same compound, the TGI (CCRF-CEM leukemia) was 111 µM, the TGI (NCI-H522 lung) was 92.3 µM and the TGI (MOLT-4 leukemia) was 75.5 µM. It also gave a TGI (OVCAR-4 ovarian) greater than 150 µM, a TGI (DLD-1 colon) of 134 µM and a TGI (COLO 205 colon) of 67.4 µM. The TGI (HOP-92 NSCLC) was 98.9 µM, the TGI (A498 renal) was 75.3 µM and the TGI (LOX IMVI melanoma) was greater than 75.7 µM. It also gave a TGI (DMS 273 small cell lung) of 64.5 µM, a TGI (RPMI-8226 leukemia) of 82.5 µM and a TGI (P388 leukemia) of 50.6 µM. For the same compound, the TGI (XF 498 CNS) was 59.2 µM, the TGI (SF-268 CNS) was greater than 150 µM and the TGI (SK-OV-3 ovarian) was 115 µM. The TGI (OVCAR-5 ovarian) was 101 µM, the TGI (P388/ADR leukemia) was 83.6 µM and the TGI (KM20L2 colon) was 113 µM. The TGI (U251 CNS) was greater than 141 µM, the TGI (SNB-75 CNS) was 106 µM and the TGI (DMS 114 small cell lung) was 67.1 µM. For the same compound, the TGI (SK-MEL-2 melanoma) was 57.3 µM, the TGI (KM12 colon) was 83.9 µM and the TGI (NCI/ADR-RES ovarian) was 94.2 µM. It also gave a TGI (SW-620 colon) greater than 127 µM, a TGI (K-562 leukemia) greater than 94.6 µM and a TGI (OVCAR-8 ovarian) of 111 µM. The TGI (NCI-H23 lung) was greater than 132 µM, the TGI (SNB-78 CNS) was greater than 150 µM and the TGI (NCI-H460 lung) was 69.5 µM. For the same compound, the TGI (HL-60(TB) leukemia) was 35 µM, the TGI (M19-MEL melanoma) was 127 µM and the TGI (EKVX NSCLC) was 128 µM. It also gave a TGI (SK-MEL-5 melanoma) of 80.8 µM, a TGI (SN12K1 renal) of 112 µM and a TGI (SN12C renal) of 133 µM. It also gave a TGI (UO-31 renal) of 78.5 µM, a TGI (SF-295 CNS) of 104 µM and a TGI (HCT-15 colon) of 78.3 µM. It also gave a TGI (NCI-H226 lung) of 60 µM, a TGI (A549 NSCLC) greater than 139 µM and a TGI (SF-539 CNS) of 91.6 µM. It also gave a TGI (HT29 colon) of 121 µM, a TGI (MALME-3M melanoma) of 69.5 µM and a TGI (HOP-18 NSCLC) of 131 µM. It also gave a TGI (HCC-2998 colon) of 88.5 µM, a TGI (UACC-62 melanoma) of 78.5 µM and a TGI (OVCAR-3 ovarian) of 58.5 µM. It also gave a TGI (MCF7 breast) of 102 µM, a TGI (HOP-62 NSCLC) of 121 µM and a TGI (IGROV1 ovarian) of 95.7 µM.
With `C=C1CC(OC)(C(OC)C(=O)N(C)[C@H]2OCO[C@H]3C2O[C@H](C[C@@H](COC)OC)C(C)(C)C3OC)O[C@H](C)[C@@H]1C` (some centres undefined) the TGI (RXF 393 renal) was 24.8 µM, the TGI (HCT-116 colon) was 30.6 µM and the TGI (CAKI-1 renal) was 28.5 µM. It also gave a TGI (SNB-19 CNS) of 46.8 µM, a TGI (UACC-257 melanoma) of 30.3 µM and a TGI (SK-MEL-28 melanoma) of 40.6 µM. The TGI (CCRF-CEM leukemia) was 37.7 µM, the TGI (NCI-H522 lung) was 29.9 µM and the TGI (MOLT-4 leukemia) was 36 µM. For the same compound, the TGI (OVCAR-4 ovarian) was 22.2 µM, the TGI (DLD-1 colon) was 70.4 µM and the TGI (COLO 205 colon) was 20.9 µM. For the same compound, the TGI (A498 renal) was 28.8 µM, the TGI (LOX IMVI melanoma) was 26.5 µM and the TGI (DMS 273 small cell lung) was 29 µM. For the same compound, the TGI (RPMI-8226 leukemia) was 53.2 µM, the TGI (P388 leukemia) was 18.2 µM and the TGI (XF 498 CNS) was 40.1 µM. For the same compound, the TGI (SF-268 CNS) was 30.2 µM, the TGI (OVCAR-5 ovarian) was 69.2 µM and the TGI (P388/ADR leukemia) was 38.8 µM. The TGI (KM20L2 colon) was 36.8 µM, the TGI (U251 CNS) was 54.4 µM and the TGI (SNB-75 CNS) was 24.7 µM. For the same compound, the TGI (DMS 114 small cell lung) was 34.9 µM, the TGI (KM12 colon) was 25.9 µM and the TGI (NCI/ADR-RES ovarian) was 41.2 µM. It also gave a TGI (SW-620 colon) greater than 91.7 µM, a TGI (K-562 leukemia) of 40.9 µM and a TGI (OVCAR-8 ovarian) greater than 91.7 µM. For the same compound, the TGI (NCI-H23 lung) was 34.7 µM, the TGI (SNB-78 CNS) was 43.5 µM and the TGI (NCI-H460 lung) was 64.5 µM. It also gave a TGI (HL-60(TB) leukemia) of 39.6 µM, a TGI (EKVX NSCLC) of 60.7 µM and a TGI (SK-MEL-5 melanoma) greater than 9.17 µM. The TGI (SN12K1 renal) was 38.6 µM, the TGI (SN12C renal) was 86.6 µM and the TGI (UO-31 renal) was 49.1 µM. It also gave a TGI (SF-295 CNS) of 30 µM, a TGI (HCT-15 colon) of 87.3 µM and a TGI (NCI-H226 lung) of 23.9 µM. The TGI (A549 NSCLC) was greater than 91.7 µM, the TGI (SF-539 CNS) was 42.8 µM and the TGI (HT29 colon) was 29 µM. It also gave a TGI (HOP-18 NSCLC) of 71.2 µM, a TGI (HCC-2998 colon) of 31.6 µM and a TGI (UACC-62 melanoma) of 33.1 µM. It also gave a TGI (OVCAR-3 ovarian) of 37.8 µM, a TGI (MCF7 breast) of 28.8 µM and a TGI (HOP-62 NSCLC) greater than 91.7 µM. It also gave a TGI (IGROV1 ovarian) of 32.5 µM.
